Data set [1] has as its system L. amazonensis axenic amastigotes. On the set-up: method as in PMID 23457021. As to conditions: read-out: IC50 against axenic amastigotes of L. amazonensis; cited from earlier work.
Data set [2] has as its system RAW 264.7 macrophages infected with Leishmania amazonensis. Kind of data set: Treatment of infected macrophages (intra-macrophagic amastigotes, 72 h). It is filed as cell-based. As to conditions: 72 h, infected RAW 264.7 macrophages, read-out: Intramacrophagic Amastigotes EC50. As to the method: In a 24-well plate with 13 mm round sterile cover slips, RAW 264.7 macrophages were added (at a concentration of 10^5 cells to 1 mL of supplemented DMEM. For cell adhesion, the plates were incubated at 37 °C and 5% CO2 for 3 h. Three washes were then performed with PBS at 37 °C to discard non-adherent cells, after which 1 mL of DMEM supplemented (stationary phase) promastigote forms of L. amazonensis was added at the ratio of 10 promastigotes per macrophage. The plate was then incubated at 5% CO2 and 37 °C for 4 h. After infection, the medium was aspirated and the treatment was added using 1 mL of DMEM supplemented with β-ocimene (3.12–25 μM) with the reference drugs, meglumine antimoniate (1.56–200 μM) and amphotericin B (0.031–2 μM), this was subsequently incubated at 37 °C and 5% CO2 for 72 h. Finally, the coverslips were removed, fixed, stained, and mounted on permanent slides using Entellan. The number of infected macrophages and the number of parasites per macrophage were counted: 300 cells were evaluated on each slide at 1000× magnification. The infection index was calculated by multiplying the number of infected macrophages by the number of amastigotes per infected macrophage. The negative control was performed using DMEM with 0.5% DMSO. The supernatant was removed at the end of the experiment and kept at −20 °C for later use in nitric oxide dosing tests.

Data set [3] can be described thus: Cytotoxic effect on mammalian cells, Vero. As to conditions: African green monkey, Vero cells. It is filed as cell-based.
In data set [4] the test system is Leishmania (Leishmania) amazonensis promastigotes. Briefly: microbe, parasite or virus in culture. It is filed as cell-based. Particulars: 72 h, MTT. As to the method: (§1) Strains of Leishmania (Leishmania) amazonensis (IFLA/BR/67/PH8) (promastigote form) were cultivated in Schneider’s insect medium (supplemented with 10% FBS, and 1% antibiotic solution), at 26 °C, and at pH 7, in a biological oxygen demand (BOD) incubator. To transform the promastigote forms into axenic amastigotes, the temperature was increased to 32 °C and the pH of the medium was adjusted to 5.5 [14].
(§2) Promastigote and axenic amastigote growth inhibition was tested as previously described by DIAS et al.. In a 96-well plate, parasites were seeded at 10^6 parasites per well in 100 μL of supplemented Schneider medium. The parasites were treated with differing concentrations of β-ocimene (1.56–12.5 μM), and reference drugs, meglumine antimoniate (500–40,000 μM) and amphotericin B (0.062–0.5 μM). The plates were incubated in a BOD incubator at 26 °C for 72 h. Afterwards, 10 µL of MTT (5 mg/mL) was added to each well, and the plate was incubated again for 4 h, when 50 µL of 10% SDS was added. Absorbances were then measured using an ELISA plate reader (BioSystems model ELx800, Curitiba, PR, Brazil) at 540 nm. The negative control consisted of Schneider medium with 0.5% DMSO and was considered as 0% inhibition.

Data set [5] has as its system Leishmania (Leishmania) amazonensis axenic amastigotes. Kind of data set: microbe, parasite or virus in culture. It is filed as cell-based. Particulars: 72 h, MTT. Here is the method:
as §1, §2

A short description of data set [6]: Cytotoxic effect on mammalian cells (MTT, 72 h), RAW 264.7. It is filed as cell-based. As to conditions: mouse, RAW 264.7 macrophages, pH 7.2, MTT. As to the method:
(§3) RAW 264.7 lineage macrophages (available from the cell bank in Rio de Janeiro, Brazil) were used, grown in sterile bottles with DMEM medium, pH 7.2 containing 10% FBS and 1% penicillin 100 U/mL and streptomycin 100 μg/mL, and kept in an oven at 37 °C and 5% CO2.
(§4) In a 96-well plate, RAW 264.7 macrophages were plated at 10^5 cells per well in 100 μL of supplemented DMEM medium. The plate was incubated for 3 h at 37 °C and 5% CO2 for cell adhesion. Afterwards, to remove non-adhered cells, washing with PBS (phosphate-buffered saline solution) was performed. Furthermore, 100 μL of DMEM supplemented with β-ocimene (3.12–400 μM), and the reference drugs, meglumine antimoniate (250–2000 μM) and amphotericin B (0.062–0.5 μM) were then added to the wells, with oven incubation at 37 °C, and 5% CO2 for 72 h. Then, 10 μL of MTT (5 mg/mL) per well was then added, being kept for another 4 h in an oven at 37 °C and 5% CO2. The supernatant was removed, and 100 µL of DMSO was added to all wells. After 30 min of stirring, readings were taken at 540 nm. DMEM supplemented with 0.5% DMSO was used as a negative control and considered as 100% macrophage viability. The selectivity index for each treatment was calculated by dividing the CC50 by the IC50, or EC50 [32].

Data set [7] concerns L. infantum promastigotes. On the set-up: method as in PMID 31151304. Particulars: read-out: IC50 against L. infantum promastigotes; cited from earlier work.
Data set [8] has as its system L. amazonensis promastigotes. On the set-up: method as in PMID 19321295. Particulars: read-out: IC50 against L. amazonensis promastigotes; cited from earlier work.
The test system of a further data set is Vero cells. Kind of data set: Cytotoxic effect on mammalian cells, Vero. It is filed as cell-based.
The next data set deals with RAW 264.7 macrophages. Kind of data set: Cytotoxic effect on mammalian cells (MTT, 72 h), RAW 264.7. As to conditions: MTT. It is filed as cell-based. As to the method:
as §3, §4

Where two headings read alike, the source gives them in different places.

A word on the IC50: it is the concentration needed to halve the response being measured. On to `NC(=S)NN=Cc1ccc([N+](=O)[O-])cc1` [4-nitrobenzaldehyde thiosemicarbazone], for which the IC50 in [1] was 8 µM.

In general, EC50 refers to the concentration that produces a half-maximal response. What is called CC50 is the concentration giving 50% cytotoxicity. Read a low CC50 as harm at low concentration. Take `C[C@@H]1[C@H](O)[C@@H](C)/C=C/C=C/C=C/C=C/C=C/C=C/C=C/[C@H](O[C@@H]2O[C@H](C)[C@@H](O)[C@H](N)[C@@H]2O)C[C@@H]2O[C@](O)(C[C@@H](O)C[C@@H](O)[C@H](O)CC[C@@H](O)C[C@@H](O)CC(=O)O[C@H]1C)C[C@H](O)[C@H]2C(=O)O` [Amphotericin B, reference compound]: the EC50 in data set [2] (Leishmania amazonensis, RAW264.7) turned out to be 0.13 µM; in data set [5] (Leishmania), 0.51 ± 0.02 µM. Further, the midpoint of cytotoxicity in data set [3], the CC50, lay at 2.46 ± 0.6 µM. This compound had an IC50 in data set [4] (Leishmania) of 0.35 ± 0.09 µM. This compound also came in with a CC50 at 72 h in data set [6] of 0.39 ± 0.03 µM.

In the case of `Cc1ccc(C(C)C)cc1O` [carvacrol], the IC50 in [7] was 65 µM.

In the case of `C=C(C)[C@H]1CC=C(C)CC1` [limonene], the IC50 in [8] was 252 µM.

`Cc1ccc(C(C)C)c(O)c1` [thymol]: the IC50 in data set [7] was 48 µM.

Consider “Meglumine antimoniate [reference compound]”, for which the EC50 in data set [2] is 578 ± 19.1 µM; in [5], 1730 ± 36.8 µM. Further, the figures for the CC50 with Vero cells and in the data set on RAW 264.7 macrophages were 22800 µM and 15900 µM, respectively. The same compound came in with an IC50 in [4] of 2150 ± 31 µM.
